The source of these data is PMC9607545, “Cry4Aa and Cry4Ba Mosquito-Active Toxins Utilize Different Domains in Binding to a Particular Culex ALP Isoform: A Functional Toxin Receptor Implicating Differential Actions on Target Larvae” (Toxins, 2022).

One test concerns the target T1, Cq-mALP1264 (Culex quinquefasciatus, UniProt A0A9E8AEX0).
T1 construct: full-length ORF, 552 residues, ~61 kDa, 1656 bp cDNA from 4th instar larval midgut; N-terminal signal peptide and predicted GPI anchor; baculovirus (AcMNPV) expression in Sf9 cells
T1 sequence (A0A9E8AEX0 21-552): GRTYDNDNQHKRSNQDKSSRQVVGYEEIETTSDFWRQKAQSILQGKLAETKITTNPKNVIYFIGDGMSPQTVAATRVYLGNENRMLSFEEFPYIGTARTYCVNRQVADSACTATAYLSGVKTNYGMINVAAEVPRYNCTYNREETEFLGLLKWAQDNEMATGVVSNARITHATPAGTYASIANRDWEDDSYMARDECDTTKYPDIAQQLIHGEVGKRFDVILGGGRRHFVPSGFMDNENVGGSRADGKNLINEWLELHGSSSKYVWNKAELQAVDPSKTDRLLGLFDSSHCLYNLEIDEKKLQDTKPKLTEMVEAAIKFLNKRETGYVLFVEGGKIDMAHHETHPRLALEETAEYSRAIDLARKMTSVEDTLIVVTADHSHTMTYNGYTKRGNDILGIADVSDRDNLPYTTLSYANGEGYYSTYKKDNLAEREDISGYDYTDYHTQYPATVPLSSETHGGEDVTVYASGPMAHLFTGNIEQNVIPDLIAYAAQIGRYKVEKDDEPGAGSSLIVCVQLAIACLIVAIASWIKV
The experiment in a line: hydrolysis in Sf9 cell lysate, absorbance of p-nitrophenol at […] nm. In kind it is biochemical. Conditions: 5 mM pNPP, 100 mM Tris-HCl pH 9.5, 5 mM MgCl2, 100 mM NaCl, 30 °C, 10 min; control: CAT-expressing lysate (endogenous ALP activity present).

Another test addresses T2, Cq-mALP1263 (Culex quinquefasciatus, UniProt A0A9E8ACD0).
T2 construct: full-length ORF, 523 residues, ~57 kDa, 1569 bp cDNA from 4th instar larval midgut; N-terminal signal peptide and predicted GPI anchor; baculovirus (AcMNPV) expression in Sf9 cells
T2 sequence (A0A9E8ACD0 19-523): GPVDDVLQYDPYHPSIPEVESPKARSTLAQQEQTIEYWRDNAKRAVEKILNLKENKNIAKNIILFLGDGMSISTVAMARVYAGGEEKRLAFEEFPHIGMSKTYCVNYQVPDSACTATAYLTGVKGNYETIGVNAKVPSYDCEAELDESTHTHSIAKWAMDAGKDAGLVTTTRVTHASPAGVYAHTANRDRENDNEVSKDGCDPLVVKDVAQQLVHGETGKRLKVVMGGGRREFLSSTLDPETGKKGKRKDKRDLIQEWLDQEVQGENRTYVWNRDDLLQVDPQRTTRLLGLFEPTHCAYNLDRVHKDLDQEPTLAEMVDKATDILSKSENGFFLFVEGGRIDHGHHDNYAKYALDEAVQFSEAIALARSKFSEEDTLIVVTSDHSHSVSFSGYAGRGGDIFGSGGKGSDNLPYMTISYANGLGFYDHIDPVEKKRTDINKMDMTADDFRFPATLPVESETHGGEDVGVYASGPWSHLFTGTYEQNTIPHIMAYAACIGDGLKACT
The description is as above. In kind it is biochemical. The note with it: 5 mM pNPP, 100 mM Tris-HCl pH 9.5, 5 mM MgCl2, 100 mM NaCl, 30 °C, 10 min; control: CAT-expressing lysate (endogenous ALP activity present).

On to `O=[N+]([O-])c1ccc(OP(=O)(O)O)cc1` [pNPP], for which the “hydrolysis in Sf9 cell lysate, absorbance of p-nitrophenol at 405 nm” value on Cq-mALP1264 and at Cq-mALP1263 was “both Cq-mALP-expressed cells produced significantly higher ALP activity than CAT-expressed cells” each time.
